Patent US11773086B2, “Fungal modulators” (TRUSTEES OF BOSTON UNIVERSITY, priority 2020, dated 2023)

Assays:
C. glabrata (BG2) = assay: Azoffluxin dose-response with background fluconazole; format: cell-based, Candida glabrata
Description: FIGS. 2A-2E illustrate the above-described screening of the BU-CMD which identified azoffluxin as a fluconazole (FLC) potentiator against C. auris. […] Growth, as determined by optical density at 600 nm (OD600), is plotted in the presence of each CMD compound alone on the y-axis and in combination with FLC on the x-axis. Dotted lines represent 7-median absolute deviations from the median for each condition. […] FIG. 2B depicts the synergistic interactions. […] Growth was measured by the OD600 and normalized to the no drug control (see color bar). The fractional inhibitory concentration index (FICI) was calculated to determine the chemical interaction, with a value below 0.5 indicating synergy. […] FIG. 2D depicts FLC Etest strips in the presence and absence of 50 μM azoffluxin. […]
Compound potency was assessed alone by dose response assays or in combination with another compound by dose-response matrixes in 96-well plates, or 384-well, flat-bottom, microtiter plates (Corning) as previously described. […] Growth was quantified by measuring OD600 and corrected for medium background. All strains were assessed in biological duplicate experiments with technical duplicates. […] For dose-response matrixes fractional inhibitory concentration index at 90% growth inhibition (FICI90) was calculated as previously described. […]

[1] = tested on: C. auris in co-culture with 293T cells; assay: Co-culture of luciferase-expressing 293T cells with C. auris; format: cell-based, Candida auris; conditions: azoffluxin and low fluconazole, 48 hours
Description: FIG. 10A depicts mammalian embryonic kidney (293T) cells expressing luciferase used to quantify mammalian cell growth in co-culture. Mammalian cells were seeded in 384-well plates in DMEM medium at 5×10^5 cells/mL overnight. After 24 hours the indicated concentration of compound (⋅ indicates combo treatment concentrations) was added along with 2.5×10^3 cells/mL of C. auris. Co-cultures were incubated for 48 hours at 37° C. and then the luminescence was measured as an output of mammalian cell growth. Error represents standard deviation between technical quadruplicates, (***) indicates a p-value<0.001 between 293T cells alone and co-culture growth for each condition. […] FIG. 10C depicts checkerboard assays performed as described in FIG. 2B with C. auris Clade IV isolate B11801. Relative growth was measured after 24 hours using OD600 and normalized to no-drug control wells (see color bar). The FICI calculated for each checkerboard is shown in the top right of each plot, with values<0.5 indicating synergy. FIG. 10D depicts kidney fungal burden (CFU) in mice from each treatment group (n=3) that had been infected with C. auris B11801. […] The significance of differences between combination treatment and treatment with each compound alone was determined by two-tailed unpaired student t-test, (***) p-value<0.001. […]

SMILES: C=C(C)C[C@@H](O)COc1cc2c(cc1C1(c3cc4c(cc3OC[C@H](O)CC(=C)C)OCO4)C(=O)Nc3cc(F)ccc31)OCO2 [CMLD012336]
- enhancement of fluconazole efficacy (C. glabrata (BG2); C. glabrata, despite increasing Nile red): did not enhance the efficacy of fluconazole
- enhancement of fluconazole activity (C. glabrata (BG2); fluconazole-sensitive laboratory strain BG2, background FLC 0.25 μg/mL): did not enhance the activity of fluconazole
- rescue of human cells in co-culture (luminescence) [1]: dramatic rescue of the human cells
